From patent US11524966B1 (Valo Early Discovery, Inc., priority 2017, dated 2022)

These compounds were tested against T1, USP28 (His-tagged USP28-FL-mammalian) (Homo sapiens, UniProt Q96RU2) (assay: Ubiquitin-Rhodamine 110 Assay for USP28 Activity, Example A-1(a)). Details: Ub-Rh110 assay, Example A-1(a); read-out: USP28 A-1(a) IC50 range.
T1 construct: Expression of USP28 (1-1077)-TEV-6*His (pTT5 vector); made in house; host or cells: Expi293f cells (pTT5 vector)
T1 sequence (Q96RU2 1-1077): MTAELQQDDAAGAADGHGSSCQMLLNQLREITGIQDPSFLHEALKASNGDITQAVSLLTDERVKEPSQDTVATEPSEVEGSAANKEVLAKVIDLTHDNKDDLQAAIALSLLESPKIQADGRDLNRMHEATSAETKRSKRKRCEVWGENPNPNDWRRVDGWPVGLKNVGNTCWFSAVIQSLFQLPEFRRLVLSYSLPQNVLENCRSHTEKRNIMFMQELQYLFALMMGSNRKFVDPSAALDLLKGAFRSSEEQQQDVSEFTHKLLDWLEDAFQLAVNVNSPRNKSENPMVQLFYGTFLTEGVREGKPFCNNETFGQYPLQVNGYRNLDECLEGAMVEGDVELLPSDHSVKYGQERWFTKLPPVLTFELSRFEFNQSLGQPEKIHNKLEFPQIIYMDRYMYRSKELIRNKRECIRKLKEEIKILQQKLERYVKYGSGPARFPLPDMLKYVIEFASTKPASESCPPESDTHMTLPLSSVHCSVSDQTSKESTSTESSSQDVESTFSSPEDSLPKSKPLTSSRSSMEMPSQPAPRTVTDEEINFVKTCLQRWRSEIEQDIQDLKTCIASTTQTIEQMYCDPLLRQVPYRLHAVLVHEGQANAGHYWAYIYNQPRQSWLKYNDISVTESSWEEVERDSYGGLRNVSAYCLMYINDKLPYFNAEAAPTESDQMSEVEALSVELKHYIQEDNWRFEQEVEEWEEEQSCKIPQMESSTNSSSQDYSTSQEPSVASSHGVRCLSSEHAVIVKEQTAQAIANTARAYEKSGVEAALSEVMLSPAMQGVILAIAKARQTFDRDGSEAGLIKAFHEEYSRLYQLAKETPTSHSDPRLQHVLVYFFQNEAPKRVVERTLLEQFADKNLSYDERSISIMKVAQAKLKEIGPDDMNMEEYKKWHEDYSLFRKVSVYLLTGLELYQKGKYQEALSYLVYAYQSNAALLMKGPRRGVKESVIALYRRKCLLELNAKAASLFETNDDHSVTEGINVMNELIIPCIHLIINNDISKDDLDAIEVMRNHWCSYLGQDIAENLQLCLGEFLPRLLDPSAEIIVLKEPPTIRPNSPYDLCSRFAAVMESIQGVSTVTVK
Format: biochemical
Procedure, shortened: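 IC50 from 4-parameter logistic fit of percent inhibition versus no-enzyme and DMSO controls; compounds 25 μM to 1.3 nM, 3-fold. Ub-Rh110 cleavage (25 nM, below Km) by […] mammalian-expressed USP28-FL-His ran 45 min at room temperature, stopped with 10 mM citric acid, read ex 485/em 535.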

Structure (SMILES) | IC50
Cc1nc2sc(C(=O)N[C@H]3COc4cc(N5CC6CC(C5)N6)ccc4C3)c(N)c2s1 [Example 2-26, N-((3R)-7-(3,6-diazabicyclo[3.1.1]heptan-3-yl)chroman-3-yl)-6-amino-2-methylthieno[2,3-d]thiazole-5-carboxamide] | 50 to 200 nM
Cc1nc2sc(C(=O)N[C@@H]3COc4cc(N5CC6CCC(C5)N6)ccc4C3)c(N)c2s1 [Example 1-24, N-((3S)-7-(3,8-diazabicyclo[3.2.1]octan-3-yl)chroman-3-yl)-6-amino-2-methylthieno[2,3-d]thiazole-5-carboxamide] | 200 to 2000 nM
Cc1cc(C(F)(F)F)c2c(N)c(C(=O)N[C@H]3COc4cc(N5CC6CNCC(C5)C6(F)F)ccc4C3)sc2n1 [Example 2-22, 3-amino-N-((3R)-7-(9,9-difluoro-3,7-diazabicyclo[3.3.1]nonan-3-yl)chroman-3-yl)-6-methyl-4-(trifluoromethyl)thieno[2,3-b]pyridine-2-carboxamide] | 1 to 50 nM
Cc1ccc2c(N)c(C(=O)N[C@H]3COc4cc(N5CCNCC5)ccc4C3)sc2n1 (single isomer, unassigned) [Example 1-1] | 1 to 50 nM
Nc1c(C(=O)N[C@H]2COc3cc(N4CC5CCC(C4)N5)ccc3C2)sc2ncc(F)cc12 (single isomer, unassigned) [Example 1-17] | 50 to 200 nM
CCn1ccc2cc(C(=O)N[C@H]3COc4cc(N5CC6CNCC(C5)C6(F)F)ccc4C3)cnc21 [Example 2-30, N-((3R)-7-(9,9-difluoro-3,7-diazabicyclo[3.3.1]nonan-3-yl)chroman-3-yl)-1-ethyl-1H-pyrrolo[2,3-b]pyridine-5-carboxamide] | 1 to 50 nM
Cc1cnc2c(N)c(C(=O)N[C@H]3COc4cc(N5CCNCC5)ccc4C3)sc2n1 (single isomer, unassigned) [Example 1-21] | 1 to 50 nM
Cc1ccc2c(N)c(C(=O)N[C@H]3COc4cc(N5CCC[C@](N)(C(F)(F)F)C5)ccc4C3)sc2n1 (single isomer, unassigned) [Example 3-4] | 1 to 50 nM
Cc1cnc2c(N)c(C(=O)N[C@H]3CCc4c(ccc(N5CCNCC5)c4C)C3)sc2n1 (single isomer, unassigned) [Example 2-36] | 200 to 2000 nM
Cc1ccc2c(N)c(C(=O)N[C@@H]3COc4cc(N5CCN[C@H](C)[C@@H]5C)ccc4C3)sc2n1 (single isomer, unassigned) [Example 1-10] | 1 to 50 nM
Cc1cc(C)c2c(N)c(C(=O)N[C@H]3COc4cc(N5CC6CC(C5)N6)ccc4C3)sc2n1 [Example 2-18, N-((3R)-7-(3,6-diazabicyclo[3.1.1]heptan-3-yl)chroman-3-yl)-3-amino-4,6-dimethylthieno[2,3-b]pyridine-2-carboxamide] | 1 to 50 nM
Cc1ccc2c(N)c(C(=O)N[C@H]3COc4cc(N5CCN[C@@H](C)[C@@H]5C)ccc4C3)sc2n1 (single isomer, unassigned) [Example 1-13] | 50 to 200 nM
Cc1ccc2c(N)c(C(=O)N[C@H]3COc4cc(N5C6CCC5CNC6)ccc4C3)sc2n1 [Example 2-6, N-((3R)-7-(3,8-diazabicyclo[3.2.1]octan-8-yl)chroman-3-yl)-3-amino-6-methylthieno[2,3-b]pyridine-2-carboxamide] | 1 to 50 nM
Cc1nc2sc(C(=O)N[C@H]3COc4cc(N5CC6CC(C5)N6)ccc4C3)c(N)c2cc1F [Example 2-15, N-((3R)-7-(3,6-diazabicyclo[3.1.1]heptan-3-yl)chroman-3-yl)-3-amino-5-fluoro-6-methylthieno[2,3-b]pyridine-2-carboxamide] | 1 to 50 nM
COc1nc2sc(C(=O)N[C@H]3COc4cc(N5CCNCC5)ccc4C3)c(N)c2cc1F [Example 2-16, (R)-3-amino-5-fluoro-6-methoxy-N-(7-(piperazin-1-yl)chroman-3-yl)thieno[2,3-b]pyridine-2-carboxamide] | 50 to 200 nM
Cc1cnc2c(N)c(C(=O)N[C@H]3COc4cc(N5CC6COCC(C5)N6)ccc4C3)sc2n1 [Example 2-12, N-((3R)-7-(3-oxa-7,9-diazabicyclo[3.3.1]nonan-7-yl)chroman-3-yl)-7-amino-3-methylthieno[2,3-b]pyrazine-6-carboxamide] | 50 to 200 nM
